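Five compound concentrations were applied to cells in 96-well plates for 48 hours; endpoints were derived by simple linear interpolation of the resulting dose-response curve. TGI: concentration producing complete growth inhibition.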
Test system: KM12 colon
Experiment: NCI-60 cell line screen, 48 h

| SMILES | TGI [µM] |
| --- | --- |
| O=c1ccc2ccc(S)cc2o1 | > 100 |
| CN(O)C(=O)/C=C/c1ccc(OCc2cccc(Cl)c2)cc1 | 41.3 |
| Cc1nc(N)c(N2CCN(C#N)CC2)c(=O)[nH]1 | > 100 |

Test system: MDA-MB-231 breast
Experiment: NCI-60 cell line screen, 48 h

| SMILES | TGI [µM] |
| --- | --- |
| [N-]=[N+]=CC(=O)C1CCCN1C(=O)c1ccccc1 (centres undefined) | > 10 |
| CC(=O)Nc1nc(Cl)cc(NCC2(CO)CCC2)n1 | > 100 |
| O=C(COc1ccc(OCC(=O)N/N=C/c2ccc(-c3ccc(Cl)cc3Cl)o2)c(Cl)c1)N/N=C/c1ccc(-c2ccc(Cl)cc2Cl)o1 | > 100 |
| Cc1ccc2cccc(-c3cccc4ccccc34)c2n1 | 81 |
| O=c1ccc2ccc(S)cc2o1 | > 100 |
| CN(O)C(=O)/C=C/c1ccc(OCc2cccc(Cl)c2)cc1 | > 100 |
| Cc1nc(N)c(N2CCN(C#N)CC2)c(=O)[nH]1 | > 100 |

Test system: NCI/ADR-RES ovarian
Experiment: NCI-60 cell line screen, 48 h

| SMILES | TGI [µM] |
| --- | --- |
| [N-]=[N+]=CC(=O)C1CCCN1C(=O)c1ccccc1 (centres undefined) | > 10 |
| CC(=O)Nc1nc(Cl)cc(NCC2(CO)CCC2)n1 | > 100 |
| O=C(COc1ccc(OCC(=O)N/N=C/c2ccc(-c3ccc(Cl)cc3Cl)o2)c(Cl)c1)N/N=C/c1ccc(-c2ccc(Cl)cc2Cl)o1 | > 100 |
| Cc1ccc2cccc(-c3cccc4ccccc34)c2n1 | > 100 |
| O=c1ccc2ccc(S)cc2o1 | > 100 |
| CN(O)C(=O)/C=C/c1ccc(OCc2cccc(Cl)c2)cc1 | 46.7 |
| Cc1nc(N)c(N2CCN(C#N)CC2)c(=O)[nH]1 | > 100 |

Test system: RXF 393 renal
Experiment: NCI-60 cell line screen, 48 h

| SMILES | TGI [µM] |
| --- | --- |
| [N-]=[N+]=CC(=O)C1CCCN1C(=O)c1ccccc1 (centres undefined) | > 10 |
| CC(=O)Nc1nc(Cl)cc(NCC2(CO)CCC2)n1 | > 100 |
| O=C(COc1ccc(OCC(=O)N/N=C/c2ccc(-c3ccc(Cl)cc3Cl)o2)c(Cl)c1)N/N=C/c1ccc(-c2ccc(Cl)cc2Cl)o1 | 81.2 |
| Cc1ccc2cccc(-c3cccc4ccccc34)c2n1 | 35.7 |
| O=c1ccc2ccc(S)cc2o1 | > 100 |
| CN(O)C(=O)/C=C/c1ccc(OCc2cccc(Cl)c2)cc1 | > 100 |

Test system: SK-MEL-2 melanoma
Experiment: NCI-60 cell line screen, 48 h

| SMILES | TGI [µM] |
| --- | --- |
| [N-]=[N+]=CC(=O)C1CCCN1C(=O)c1ccccc1 (centres undefined) | > 10 |
| CC(=O)Nc1nc(Cl)cc(NCC2(CO)CCC2)n1 | > 100 |
| O=C(COc1ccc(OCC(=O)N/N=C/c2ccc(-c3ccc(Cl)cc3Cl)o2)c(Cl)c1)N/N=C/c1ccc(-c2ccc(Cl)cc2Cl)o1 | > 100 |
| Cc1ccc2cccc(-c3cccc4ccccc34)c2n1 | 37.5 |
| O=c1ccc2ccc(S)cc2o1 | > 100 |
| CN(O)C(=O)/C=C/c1ccc(OCc2cccc(Cl)c2)cc1 | 82.7 |
| Cc1nc(N)c(N2CCN(C#N)CC2)c(=O)[nH]1 | > 100 |

Test system: SK-MEL-5 melanoma
Experiment: NCI-60 cell line screen, 48 h

| SMILES | TGI [µM] |
| --- | --- |
| [N-]=[N+]=CC(=O)C1CCCN1C(=O)c1ccccc1 (centres undefined) | > 10 |
| CC(=O)Nc1nc(Cl)cc(NCC2(CO)CCC2)n1 | > 100 |
| O=C(COc1ccc(OCC(=O)N/N=C/c2ccc(-c3ccc(Cl)cc3Cl)o2)c(Cl)c1)N/N=C/c1ccc(-c2ccc(Cl)cc2Cl)o1 | > 100 |
| Cc1ccc2cccc(-c3cccc4ccccc34)c2n1 | 32.2 |
| O=c1ccc2ccc(S)cc2o1 | > 100 |
| CN(O)C(=O)/C=C/c1ccc(OCc2cccc(Cl)c2)cc1 | 78.2 |

Test system: U251 CNS
Experiment: NCI-60 cell line screen, 48 h

| SMILES | TGI [µM] |
| --- | --- |
| [N-]=[N+]=CC(=O)C1CCCN1C(=O)c1ccccc1 (centres undefined) | > 10 |
| CC(=O)Nc1nc(Cl)cc(NCC2(CO)CCC2)n1 | > 100 |
| O=C(COc1ccc(OCC(=O)N/N=C/c2ccc(-c3ccc(Cl)cc3Cl)o2)c(Cl)c1)N/N=C/c1ccc(-c2ccc(Cl)cc2Cl)o1 | > 100 |
| Cc1ccc2cccc(-c3cccc4ccccc34)c2n1 | 29.9 |
| O=c1ccc2ccc(S)cc2o1 | > 100 |
| CN(O)C(=O)/C=C/c1ccc(OCc2cccc(Cl)c2)cc1 | > 100 |
| Cc1nc(N)c(N2CCN(C#N)CC2)c(=O)[nH]1 | > 100 |

Test system: 786-0 renal
Experiment: NCI-60 cell line screen, 48 h

| SMILES | TGI [µM] |
| --- | --- |
| [N-]=[N+]=CC(=O)C1CCCN1C(=O)c1ccccc1 (centres undefined) | > 10 |
| CC(=O)Nc1nc(Cl)cc(NCC2(CO)CCC2)n1 | > 100 |
| O=C(COc1ccc(OCC(=O)N/N=C/c2ccc(-c3ccc(Cl)cc3Cl)o2)c(Cl)c1)N/N=C/c1ccc(-c2ccc(Cl)cc2Cl)o1 | > 100 |
| Cc1ccc2cccc(-c3cccc4ccccc34)c2n1 | > 100 |
| O=c1ccc2ccc(S)cc2o1 | > 100 |
| CN(O)C(=O)/C=C/c1ccc(OCc2cccc(Cl)c2)cc1 | 47.2 |
| Cc1nc(N)c(N2CCN(C#N)CC2)c(=O)[nH]1 | > 100 |

Test system: HS 578T breast
Experiment: NCI-60 cell line screen, 48 h

| SMILES | TGI [µM] |
| --- | --- |
| [N-]=[N+]=CC(=O)C1CCCN1C(=O)c1ccccc1 (centres undefined) | > 10 |
| CC(=O)Nc1nc(Cl)cc(NCC2(CO)CCC2)n1 | > 100 |
| O=C(COc1ccc(OCC(=O)N/N=C/c2ccc(-c3ccc(Cl)cc3Cl)o2)c(Cl)c1)N/N=C/c1ccc(-c2ccc(Cl)cc2Cl)o1 | > 100 |
| Cc1ccc2cccc(-c3cccc4ccccc34)c2n1 | 81.9 |
| O=c1ccc2ccc(S)cc2o1 | > 100 |
| CN(O)C(=O)/C=C/c1ccc(OCc2cccc(Cl)c2)cc1 | > 100 |
| Cc1nc(N)c(N2CCN(C#N)CC2)c(=O)[nH]1 | > 100 |

Test system: SR leukemia
Experiment: NCI-60 cell line screen, 48 h

| SMILES | TGI [µM] |
| --- | --- |
| [N-]=[N+]=CC(=O)C1CCCN1C(=O)c1ccccc1 (centres undefined) | > 10 |
| CC(=O)Nc1nc(Cl)cc(NCC2(CO)CCC2)n1 | > 100 |
| O=C(COc1ccc(OCC(=O)N/N=C/c2ccc(-c3ccc(Cl)cc3Cl)o2)c(Cl)c1)N/N=C/c1ccc(-c2ccc(Cl)cc2Cl)o1 | 8.25 |
| Cc1ccc2cccc(-c3cccc4ccccc34)c2n1 | 35.8 |
| O=c1ccc2ccc(S)cc2o1 | > 100 |
| CN(O)C(=O)/C=C/c1ccc(OCc2cccc(Cl)c2)cc1 | 38.4 |
| Cc1nc(N)c(N2CCN(C#N)CC2)c(=O)[nH]1 | > 100 |

Test system: HCC-2998 colon
Experiment: NCI-60 cell line screen, 48 h

| SMILES | TGI [µM] |
| --- | --- |
| [N-]=[N+]=CC(=O)C1CCCN1C(=O)c1ccccc1 (centres undefined) | > 10 |
| CC(=O)Nc1nc(Cl)cc(NCC2(CO)CCC2)n1 | > 100 |
| O=C(COc1ccc(OCC(=O)N/N=C/c2ccc(-c3ccc(Cl)cc3Cl)o2)c(Cl)c1)N/N=C/c1ccc(-c2ccc(Cl)cc2Cl)o1 | > 100 |
| Cc1ccc2cccc(-c3cccc4ccccc34)c2n1 | 29.1 |
| O=c1ccc2ccc(S)cc2o1 | > 100 |
| CN(O)C(=O)/C=C/c1ccc(OCc2cccc(Cl)c2)cc1 | 72.7 |
| Cc1nc(N)c(N2CCN(C#N)CC2)c(=O)[nH]1 | > 100 |

Test system: UO-31 renal
Experiment: NCI-60 cell line screen, 48 h

| SMILES | TGI [µM] |
| --- | --- |
| [N-]=[N+]=CC(=O)C1CCCN1C(=O)c1ccccc1 (centres undefined) | > 10 |
| CC(=O)Nc1nc(Cl)cc(NCC2(CO)CCC2)n1 | > 100 |
| O=C(COc1ccc(OCC(=O)N/N=C/c2ccc(-c3ccc(Cl)cc3Cl)o2)c(Cl)c1)N/N=C/c1ccc(-c2ccc(Cl)cc2Cl)o1 | > 100 |
| Cc1ccc2cccc(-c3cccc4ccccc34)c2n1 | 51.4 |
| O=c1ccc2ccc(S)cc2o1 | > 100 |
| CN(O)C(=O)/C=C/c1ccc(OCc2cccc(Cl)c2)cc1 | 23.5 |
| Cc1nc(N)c(N2CCN(C#N)CC2)c(=O)[nH]1 | > 100 |

Test system: SF-268 CNS
Experiment: NCI-60 cell line screen, 48 h

| SMILES | TGI [µM] |
| --- | --- |
| [N-]=[N+]=CC(=O)C1CCCN1C(=O)c1ccccc1 (centres undefined) | > 10 |
| CC(=O)Nc1nc(Cl)cc(NCC2(CO)CCC2)n1 | > 100 |
| O=C(COc1ccc(OCC(=O)N/N=C/c2ccc(-c3ccc(Cl)cc3Cl)o2)c(Cl)c1)N/N=C/c1ccc(-c2ccc(Cl)cc2Cl)o1 | > 100 |
| Cc1ccc2cccc(-c3cccc4ccccc34)c2n1 | > 100 |
| O=c1ccc2ccc(S)cc2o1 | > 100 |
| CN(O)C(=O)/C=C/c1ccc(OCc2cccc(Cl)c2)cc1 | > 100 |
| Cc1nc(N)c(N2CCN(C#N)CC2)c(=O)[nH]1 | > 100 |

Test system: NCI-H226 lung
Experiment: NCI-60 cell line screen, 48 h

| SMILES | TGI [µM] |
| --- | --- |
| [N-]=[N+]=CC(=O)C1CCCN1C(=O)c1ccccc1 (centres undefined) | > 10 |
| CC(=O)Nc1nc(Cl)cc(NCC2(CO)CCC2)n1 | > 100 |
| O=C(COc1ccc(OCC(=O)N/N=C/c2ccc(-c3ccc(Cl)cc3Cl)o2)c(Cl)c1)N/N=C/c1ccc(-c2ccc(Cl)cc2Cl)o1 | > 100 |
| Cc1ccc2cccc(-c3cccc4ccccc34)c2n1 | 74.5 |
| O=c1ccc2ccc(S)cc2o1 | > 100 |
| CN(O)C(=O)/C=C/c1ccc(OCc2cccc(Cl)c2)cc1 | 73.9 |
| Cc1nc(N)c(N2CCN(C#N)CC2)c(=O)[nH]1 | > 100 |

Test system: OVCAR-5 ovarian
Experiment: NCI-60 cell line screen, 48 h

| SMILES | TGI [µM] |
| --- | --- |
| [N-]=[N+]=CC(=O)C1CCCN1C(=O)c1ccccc1 (centres undefined) | > 10 |
| CC(=O)Nc1nc(Cl)cc(NCC2(CO)CCC2)n1 | > 100 |
| O=C(COc1ccc(OCC(=O)N/N=C/c2ccc(-c3ccc(Cl)cc3Cl)o2)c(Cl)c1)N/N=C/c1ccc(-c2ccc(Cl)cc2Cl)o1 | > 100 |
| Cc1ccc2cccc(-c3cccc4ccccc34)c2n1 | 55.5 |
| O=c1ccc2ccc(S)cc2o1 | > 100 |
| CN(O)C(=O)/C=C/c1ccc(OCc2cccc(Cl)c2)cc1 | > 100 |
| Cc1nc(N)c(N2CCN(C#N)CC2)c(=O)[nH]1 | > 100 |
